From patent publication US20160201112A1, “NANOSENSOR FOR DETECTING THE ACTIVITY OF GLYCOSAMINOGLYCAN-CLEAVING ENZYMES AND USES THEREOF” (VIRGINIA COMMONWEALTH UNIVERSITY, priority 2013, published 2016)
Entries after “also recorded” stand apart in the source; their conditions may differ.

Key:
heparitinase = test: Au-heparin-dye nanosensor fluorescence assay with heparitinase and OSCS-spiked heparin (96-well plate); format: biochemical; details: in the presence of 10% w/w OSCS
Method: (§1) Once it was established that enzyme action causes the fluorescence probe to recover from being quenched, a heparitinase enzyme inhibition study was carried out in the presence of OSCS-contaminated heparin. For this study, a mixture of heparitinase I, II, and III was incubated with (a) heparin (200 μg), (b) heparin with 10% w/w chondroitin sulfate A and C and (c) heparin with 10% w/w OSCS. The resulting oligosaccharides were then analyzed by analytical HPLC. […] The enzyme activity on the nanosensor should be maximal at low OSCS concentration and minimal at high OSCS concentration. Consequently, the fluorescence quenching of the dye should be minimal at low OSCS concentrations (and measured fluorescence should be high) and quenching should be maximal at high OSCS concentrations (and measured fluorescence should below).
In order to develop an analytical method and kit for determining contamination in heparin, serial dilutions of OSCS were performed at log increment concentrations from 0.1 μg/μL to 0.1 femtogram (fg)/μL. Next, standard heparin solutions (10 μg) were spiked serially with OSCS solutions from 1 μg (10% w/w) to 0.1 fg (10^−9% w/w) of OSCS “contamination” resulting in 11 separate tests. Heparin (10 μg) and OSCS (10 μg) were utilized as positive and negative controls, respectively. […]

[1] = system: mixture of heparitinase I, II, and III; test: Heparitinase enzyme inhibition study, heparin disaccharides analysed by HPLC; format: biochemical; details: 10% w/w OSCS in heparin (90% heparin + 10% w/w OSCS)
Method: as §1

oversulfated chondroitin sulfate [OSCS]
heparitinase action on Au-heparin-dye nanosensor (fluorescence quenching) (heparitinase): heparitinases could not act on the Au-heparin-dye nanosensor and fluorescence quenching was maintained | inhibition of heparitinase enzyme activity (HPLC profile of heparin disaccharides) [1]: completely inhibits the enzyme; also recorded: powerful inhibitor
